Values belong to the compound of their own block, whether it stands above or below them.
Key:
[1] = Dynamic moisture sorption assessment (DMS); format: physicochemical; conditions: for deliquescence: exposed to atmosphere moisture
Procedure: Approximately 10 mg of sample was used in the microbalance and the sample was run as received. The humidity was set at ambient condition on the day the analysis began. A typical DMSG analysis consisted of three scans: ambient to 2% relative humidity (RH), 2% RH to 90% RH, 90% RH to 5% RH. The scan rate was 5% RH/step. The mass was measured every two minutes using an equilibrium window of 5 points within 0.01% of the initial sample weight. The RH was changed to the next value (+/−5% RH) when the mass of the sample was stable to within 0.01% for 5 consecutive points.

[2] = Thermal analysis (DSC and TGA); format: physicochemical
Procedure: Differential scanning calorimetry (DSC) was performed using a TA Instruments Model Q-10 module with a Thermal Analyst controller. Data were collected and analyzed using TA Instruments Thermal Solutions software. A sample of about 1 mg was accurately weighed into an aluminum pan with lid. The sample was evaluated using a linear heating ramp of 5° C./min from ambient temperature to approximately 300° C. The DSC cell was purged with dry nitrogen during use.
Thermogravimetric analysis (TGA) was performed using a TA Instruments Model Q-50 module equipped with Hi-Resolution capability. Data were collected and analyzed using TA Instruments Thermal Solutions software. A sample weighing about 10 mg was placed onto a platinum pan and scanned with a high resolution-heating rate from ambient temperature to 300° C. The balance and furnace chambers were purged with nitrogen flows during use.

[3] = test system: human β1, β2 or β3 adrenergic receptors; experiment: Whole-cell cAMP Flashplate assay in CHO cell lines heterologously expressing human β adrenergic receptors; format: cell-based; conditions: CHO-K1 cells; receptor subtype not named in the result sentence; read-out: EC50 values (β receptor agonist potency, cAMP)
Procedure: Test compounds (10 mM in DMSO) were diluted into PBS containing 0.1% BSA in Beckman Biomek-2000 and tested at 11 different concentrations ranging from 100 μM to 1 pM.

[4] = test system: ACh-induced bronchoconstriction; experiment: Bronchoprotection in guinea pig model of acetylcholine-induced bronchoconstriction; format: in vivo; conditions: inhalation, 1.5 hours post-dose
Procedure: (§1) Groups of 6 male guinea pigs (Duncan-Hartley (HsdPoc:DH) Harlan, Madison, Wis.) weighing between 250 and 350 g were individually identified by cage cards. Throughout the study, animals were allowed access to food and water ad libitum.
(§2) Forty-five minutes prior to the start of the pulmonary evaluation, each guinea pig was anesthetized with an intramuscular injection of ketamine (43.75 mg/kg), xylazine (3.50 mg/kg) and acepromazine (1.05 mg/kg). After the surgical site was shaved and cleaned with 70% alcohol, a 2-3 cm midline incision of the ventral aspect of the neck was made. […] The depth of anesthesia was monitored and adjusted if the animal responds to pinching of its paw or if the respiration rate was greater than 100 breaths/minute. […]
(§3) Once it was determined that baseline values were within the range of 0.3-0.9 mL/cm H2O for compliance and within the range of 0.1-0.199 cm H2O/mL per second for resistance, the pulmonary evaluation was initiated. […]
(§4) Starting this program initiated the experimental protocol and data collection. The changes in […] over time that occur within the plethysmograph with each breath were measured via a Buxco pressure transducer. By integrating this signal over time, a measurement of flow was calculated for each breath. […]

[5] = test system: His-induced bronchoconstriction; experiment: Bronchoprotection in guinea pig model of histamine-induced bronchoconstriction; format: in vivo; conditions: inhalation, 1.5 hours post-dose
Procedure: as §1, §2, §3, §4

[6] = listed as crystalline naphthalene-1,5-disulfonic acid salt of the compound of formula I
[7] = listed as naphthalene-1,5-disulfonic acid salt of the present invention

Compound: Biphenyl-2-ylcarbamic Acid 1-{9-[(R)-2-Hydroxy-2-(8-Hydroxy-2-oxo-1,2-dihydroquinolin-5-yl)ethylamino]nonyl}piperidin-4-yl Ester Naphthalene-1,5-disulfonic Acid Salt [Example 3]
moisture sorption/desorption profile [1]: reversible
deliquescence [1, 6]: not to be deliquescent
deliquescence [1, 7]: not deliquescent
weight gain ([1]; humidity range from 2% RH up to 90% RH): 3.7%
weight gain ([1]; humidity range of 40% RH to 75% RH): less than 1.5%
hygroscopicity (weight gain when exposed to atmospheric moisture) [1, 6]: less than 5%
hygroscopicity (weight gain when exposed to atmospheric moisture) [1, 7]: < 5%
weight loss (TGA) ([2]; from room temperature to 150° C.): about 1.8%
temperature below which no thermal decomposition occurs (DSC) ([2]; heating ramp of 5° C./min): ≥ 200 °C

EC50 [3]: < 0.01 µM
Compound: O=C(Nc1ccccc1-c1ccccc1)OC1CCN(CCCCCCCCCNC[C@H](O)c2ccc(O)c3[nH]c(=O)ccc23)CC1 [compound of formula I, biphenyl-2-ylcarbamic acid 1-{9-[(R)-2-hydroxy-2-(8-hydroxy-2-oxo-1,2-dihydro-quinolin-5-yl)ethylamino]nonyl}piperidin-4-yl ester]
ID50 for ACh-induced bronchoconstriction [4]: less than 100 μg/mL
ID50 for His-induced bronchoconstriction [5]: less than 100 μg/mL

— patent US7320990B2, “Crystalline form of a biphenyl compound” (Theravance, Inc., priority 2004, dated 2008)
